Assay results from patent US9504684B2, “Syk inhibitors” (Gilead Sciences, Inc., priority 2014, dated 2016).
Where a name gives a salt, the structure may show the parent alone.

How the values were obtained:
[1] = tested on: human hepatocytes; test: Human Hepatocyte Stability Assay; type: in vitro ADME
Procedure: The human […] stability of the compounds as predicted hepatocyte clearance in L/hr/kg was assessed. Compounds to be tested were diluted to 200 μM (4 μl of 10 mM DMSO stock into 196 μl ACN:H2O (50:50). Propranolol was used as a positive control, and buffer only without hepatocytes as 0% control. These were further diluted 4 μl with 891 μl KHB buffer (InVitroGRO catalog number Z99074) to provide 2× dosing solution. To each well of 24 well plate, 250 μl of the 2× dosing solution was added to each well with 250 μl of hepatocytes cells (1×10^6 viable cells/ml per well) or KHB for control samples to achieve a final compound concentration of 1 μM during incubation. The final solvent concentration was 0.01% DMSO and 0.25% ACN. The culture plate was placed on a rocker and incubated at 37° C., 5% CO2. Samples were collected at time 0, 1, 3, and 6 hours. The loss of parent compound was determined using LC-MS methods against a standard curve.

[2] = cited from earlier work
[3] = in vivo; cited from earlier work
[4] = comparison table of Example 12, head prints "(units)", L/hr/kg per Example 11
[5] = predicted hepatocyte clearance, human hepatocytes, 1 μM compound

Row | Compound | Hheps CL [1, 4] | Hheps CL [1, 5] | further results
1 | COc1ccc(Nc2nc(-c3cccc(N)c3)cn3ccnc23)cc1OC [6-(3-aminophenyl)-N-(3,4-dimethoxyphenyl)imidazo[1,2-a]pyrazin-8-amine, reference compound] | 4 mL/min/kg |  | 
2 | Cc1ncc(-c2cn3ccnc3c(Nc3ccc(N4CCOCC4)cc3)n2)cc1N [6-(5-amino-6-methylpyridin-3-yl)-N-(4-morpholinophenyl)imidazo[1,2-a]pyrazin-8-amine, reference compound] | 13.3 mL/min/kg |  | 
3 | Nc1cncc(-c2cn3ccnc3c(Nc3ccc(N4CCOCC4)cc3)n2)c1 [6-(5-aminopyridin-3-yl)-N-(4-morpholinophenyl)imidazo[1,2-a]pyrazin-8-amine, reference compound] | 11.3 mL/min/kg |  | 
4 | COc1ccc(Nc2nc(-c3ccc(N)nc3)cn3ccnc23)cc1OC [6-(6-aminopyridin-3-yl)-N-(3,4-dimethoxyphenyl)imidazo[1,2-a]pyrazin-8-amine, reference compound] | 15 mL/min/kg |  | 
5 | Cc1ncc(-c2cn3ccnc3c(Nc3ccc(N4CCN(C5COC5)CC4)cc3)n2)nc1N [Ex.-1, 6-(6-amino-5-methylpyrazin-2-yl)-N-(4-(4-(oxetan-3-yl)piperazin-1-yl)phenyl)imidazo[1,2-a]pyrazin-8-amine] | 2 mL/min/kg | 2 mL/min/kg | 
6 | Nc1cncc(-c2cn3ccnc3c(Nc3ccc(N4CCN(C5COC5)CC4)cc3)n2)n1 [Ex.-2, 6-(6-aminopyrazin-2-yl)-N-(4-(4-(oxetan-3-yl)piperazin-1-yl)phenyl)imidazo[1,2-a]pyrazin-8-amine] | 0.917 mL/min/kg | 0.917 mL/min/kg | 
7 | Nc1cncc(-c2cn3ccnc3c(Nc3ccc(N4CCO[C@@H](CO)C4)cc3)n2)n1 [Ex.-3, (R)-(4-(4-((6-(6-aminopyrazin-2-yl)imidazo[1,2-a]pyrazin-8-yl)amino)phenyl)morpholin-2-yl)methanol] | 1.5 mL/min/kg | 1.5 mL/min/kg | 
8 | Cc1c(-c2cncc(N)n2)nc(Nc2ccc(N3CCN(C4COC4)CC3)cc2)c2nccn12 [Ex.-4, 6-(6-aminopyrazin-2-yl)-5-methyl-N-(4-(4-(oxetan-3-yl)piperazin-1-yl)phenyl)imidazo[1,2-a]pyrazin-8-amine] | 1.3 mL/min/kg | 1.3 mL/min/kg | 
9 | Nc1cncc(-c2cn3ccnc3c(Nc3ccc(N4CCN(C5COC5)CC4)c(OCCO)c3)n2)n1 [Ex.-5, 2-(5-((6-(6-aminopyrazin-2-yl)imidazo[1,2-a]pyrazin-8-yl)amino)-2-(4-(oxetan-3-yl)piperazin-1-yl)phenoxy)ethanol] | 1.2 mL/min/kg | 1.2 mL/min/kg | 
10 | Nc1cncc(-c2cn3ccnc3c(Nc3ccc(N4CCN(CC(CO)CO)CC4)cc3)n2)n1 [Ex.-6, 2-((4-(4-((6-(6-aminopyrazin-2-yl)imidazo[1,2-a]pyrazin-8-yl)amino)phenyl)piperazin-1-yl)methyl)propane-1,3-diol] | 1.3 mL/min/kg | 1.3 mL/min/kg | 
11 | Cc1ncc(-c2cn3ccnc3c(Nc3ccc(N4CCN(C5COC5)CC4)c(OCCO)c3)n2)nc1N [Ex.-7, 2-(5-((6-(6-amino-5-methylpyrazin-2-yl)imidazo[1,2-a]pyrazin-8-yl)amino)-2-(4-(oxetan-3-yl)piperazin-1-yl)phenoxy)ethanol] | 0.83 mL/min/kg | 0.83 mL/min/kg | 
12 | CC[C@]1(O)C[C@H]2CN(CCc3c([nH]c4ccccc34)[C@@](C(=O)OC)(c3cc4c(cc3OC)N(C=O)[C@H]3[C@@](O)(C(=O)OC)[C@H](OC(C)=O)[C@]5(CC)C=CCN6CC[C@]43[C@@H]65)C2)C1 [Vincristine Sulfate, vincristine sulfate] |  |  | solubility in 95% ethanol ([2]; 95% ethanol): only slightly soluble; solubility in methanol ([2]; methanol): soluble in methanol; solubility in water ([2]; water): freely soluble
13 | CC[C@]1(O)C[C@@H]2CN(CCc3c([nH]c4ccccc34)[C@@](C(=O)OC)(c3cc4c(cc3OC)N(C)[C@H]3[C@@](O)(C(N)=O)[C@H](O)[C@]5(CC)C=CCN6CC[C@]43[C@@H]65)C2)C1 [Vindesine, vindesine] |  |  | serum half-life [3]: 24 h
